Assay results published in PMC3724348 (Biochemistry, 2013).
“Also recorded” adds a separate entry of the source.

Legend:
[1] = test system: VDR target genes IGFBP-3, TRPV6 and CYP24A1 in LNCaP cells; assay: Semi-quantitative real time PCR, VDR target genes in LNCaP cells; assay type: cell-based, human
[2] = test system: HL-60 cells; assay: HL60 differentiation assay; assay type: cell-based, human; conditions: 4 days, 1,25(OH)2D3 alone
[3] = test system: AR target genes UGT1A1 and PSA in LNCaP cells; assay: Semi-quantitative real time PCR, AR target genes in LNCaP cells; assay type: cell-based, human; conditions: 18 h
[4] = biological target: interaction between VDR and SRC2–3 (Homo sapiens, UniProt P11473, DEL165-215); assay: HTS FP assay, VDR–SRC2–3 inhibition; assay type: binding; conditions: HTS campaign; Texas Red-labeled SRC2–3
[5] = biological target: VDR (Homo sapiens, UniProt P11473); assay: VDR ligand competition FP assay; assay type: binding; conditions: with respect to 100% free probe (55 mP) measured in the absence of VDR
[6] = test system: SRC2; assay: Isothermal titration calorimetry GW0742–SRC2; assay type: binding
[7] = biological target: TRβ–SRC2–2 interaction (Homo sapiens, UniProt P10828); assay: FP assay TRβ–SRC2–2 inhibition; assay type: binding
[8] = biological target: T1, PPARγ–DRIP2 interaction (Homo sapiens, UniProt P37231); assay: FP assay PPARγ–DRIP2; assay type: binding
T1 sequence (P37231 238-503 limits assumed): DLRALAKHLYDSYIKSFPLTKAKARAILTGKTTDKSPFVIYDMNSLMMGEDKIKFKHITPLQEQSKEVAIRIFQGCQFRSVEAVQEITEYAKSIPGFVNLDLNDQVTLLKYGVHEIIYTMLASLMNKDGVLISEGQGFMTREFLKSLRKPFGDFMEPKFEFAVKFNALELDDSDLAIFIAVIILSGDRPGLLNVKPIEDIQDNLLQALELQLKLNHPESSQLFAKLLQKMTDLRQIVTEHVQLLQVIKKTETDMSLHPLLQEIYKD

[9] = biological target: PPARγ (Homo sapiens, UniProt P37231); assay: One-hybrid luciferase transcription assay in HEK 293T cells; assay type: cell-based
[10] = Cell viability; assay type: cell-based, human; conditions: human
[11] = test system: HEK 293T cells; assay: Cell viability; assay type: cell-based, human; conditions: GW0742 18.7 µM; CellTiter-Glo
[12] = biological target: VDR–SRC2 interaction (Homo sapiens, UniProt P11473, DEL165-215); assay: Western pull-down assay VDR-LBD and SRC2 bearing all three NIDs; assay type: binding
[13] = test system: PPARγ target gene ANGPTL4 in LNCaP cells; assay: Semi-quantitative real time PCR, PPARγ target gene in LNCaP cells; assay type: cell-based, human; conditions: 18 h
[14] = test system: TR target gene BTG2 in LNCaP cells; assay: Semi-quantitative real time PCR, TR target gene in LNCaP cells; assay type: cell-based, human; conditions: 18 h
[15] = test system: HL-60 cells; assay: HL-60 cell death in differentiation assay; assay type: cell-based, human; conditions: 4 days
[16] = biological target: VDR-SRC2–3 Alexa Fluor 647 interaction (Homo sapiens, UniProt P11473, DEL165-215); assay: VDR–SRC2–3 FP assay in the presence of 1 mM or 100 mM 2-mercaptoethanol; assay type: binding; conditions: small molecules 50 µM; Alexa Fluor 647 SRC2–3
[17] = test system: estrogen receptor α; conditions: HTS campaign; ref AID:588513, pubchem; cited from earlier work
[18] = test system: glucocorticoid receptor; conditions: HTS campaign; ref AID:588533, pubchem; cited from earlier work
[19] = test system: PPARγ; conditions: HTS campaign; ref AID588537, pubchem; cited from earlier work
[20] = test system: retinoid X receptor; conditions: HTS campaign; ref AID:588546, pubchem; cited from earlier work
[21] = test system: TRβ; conditions: HTS campaign; ref AID:588547, pubchem; cited from earlier work
[22] = test system: ANGPTL4 in HT29 colon cancer cells; conditions: GW0742 1 µM; cited from earlier work
[23] = test system: HEK293T cells; assay: Toxicity in HEK293T cells; conditions: at a concentration of 45.8 µM; AID:602204
[24] = GW0742 20 µM + 1,25(OH)2D3 10 nM, 18 h

Sequence of TRβ–SRC2–2 interaction (P10828 217-461 limits assumed): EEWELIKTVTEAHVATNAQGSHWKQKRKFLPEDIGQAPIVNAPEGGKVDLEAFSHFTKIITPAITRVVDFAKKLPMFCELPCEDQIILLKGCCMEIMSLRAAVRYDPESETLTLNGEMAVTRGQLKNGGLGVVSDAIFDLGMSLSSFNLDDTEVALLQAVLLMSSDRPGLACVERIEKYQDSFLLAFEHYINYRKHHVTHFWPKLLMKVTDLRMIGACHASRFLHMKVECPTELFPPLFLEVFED

C=C1/C(=C\C=C2/CCC[C@]3(C)[C@@H]([C@H](C)CCCC(C)(C)O)CC[C@@H]23)C[C@@H](O)C[C@@H]1O [1,25(OH)2D3, 1,25-dihydroxyvitamin D3]
CYP24A1 expression ([1]; 1,25(OH)2D3 10 nM, 6 hours and 18 hours): induction; also recorded: moderately upregulated
IGFBP-3 expression ([1]; 1,25(OH)2D3 10 nM, 18 h): strongly induced
TRPV6 expression ([1]; 1,25(OH)2D3 10 nM, 18 h): strongly induced
HL-60 cell differentiation [2]: strong

C[C@]12CCC(=O)C[C@@H]1CC[C@@H]1[C@@H]2CC[C@]2(C)[C@@H](O)CC[C@@H]12 [DHT, dihydrotestosterone]
UGT1A1 expression ([3]; DHT 10 nM): upregulated

Cc1cc(SCc2sc(-c3ccc(C(F)(F)F)c(F)c3)nc2C)ccc1OCC(=O)O [GW0742]
VDR–SRC2–3 inhibition (FP assay) IC50 [4]: inconclusive
extent of inhibition of VDR–ligand binding [5]: partial inhibition
interaction between GW0742 and SRC2 (ITC) [6]: no specific interaction was observed
IC50 [7]: 59.9 ± 9.5 µM
EC50 [8]: 2.6 µM
IC50 [8]: > 86 µM
concentration with significant inhibition between PPARγ-LBD and DRIP2 ([8]; FP assay): > 86 µM
concentration with significant PPARγ-mediated transcriptional inhibition [9]: > 20 µM
viability at 16 h, 37.5 µM [10]: 93 ± 3%
toxicity [11]: no toxicity was observed
inhibition of the VDR–SRC2 interaction (pull-down) ([12]; in the presence of VDR ligand): blocked in a dose dependent manner
concentration with significant inhibition of the VDR–SRC2 interaction ([12]; residual bands still detected): 80 to 120 µM
effect on DHT-induced PSA expression ([3]; GW0742 20 µM + DHT 10 nM): significant inhibitory effect
effect on DHT-induced UGT1A1 expression ([3]; GW0742 20 µM + DHT 10 nM): significant inhibitory effect
effect on rosiglitazone-induced ANGPTL4 expression ([13]; GW0742 20 µM + rosiglitazone 5 µM): unaffected; also recorded: inconclusive
effect on T3-mediated down-regulation of BTG2 ([14]; GW0742 20 µM + T3 10 nM): reversed
effect on 1,25(OH)2D3-induced IGFBP-3 expression [1, 24]: selectively inhibited
effect on 1,25(OH)2D3-induced TRPV6 expression [1, 24]: selectively inhibited
effect on 1,25(OH)2D3-induced CYP24A1 expression ([1]; only at 6 hours and 50 µM GW0742 + 1,25(OH)2D3 10 nM): significant inhibition
concentration with significant HL-60 cell death [15]: 150 µM
inhibition of VDR–SRC2–3 interaction at 100 mM ME in comparison with 1 mM ME [16]: not influenced
antagonistic activity ERα [17]: Antagonistic activity
antagonistic activity GR [18]: Antagonistic activity
antagonistic activity PPARγ [19]: Antagonistic activity
antagonistic activity RxR [20]: Antagonistic activity
antagonistic activity TRβ [21]: Antagonistic activity
ANGPTL4 activation [22]: activation
cell death [23]: 18%

CN(CCOc1ccc(CC2SC(=O)NC2=O)cc1)c1ccccn1 (centres unmarked) [Rosiglitazone]
ANGPTL4 expression ([13]; rosiglitazone 5 µM): induced

N[C@@H](Cc1cc(I)c(Oc2ccc(O)c(I)c2)c(I)c1)C(=O)O [T3, triiodothyronine]
BTG2 expression ([14]; T3 10 nM): down-regulated
